This note sets out measurements from ChEMBL document CHEMBL1136188, “1H-Pyrazolo-[3,4-c]cyclophepta[1,2-c]thiophenes: a unique structural class of dopamine D4 selective ligands” (Bioorg Med Chem Lett, 2003).

In this experiment the target is T1, Adrenergic receptor alpha-2 (Homo sapiens, UniProt P08913+P18825+P18089).
T1 sequence (P08913 whole entry): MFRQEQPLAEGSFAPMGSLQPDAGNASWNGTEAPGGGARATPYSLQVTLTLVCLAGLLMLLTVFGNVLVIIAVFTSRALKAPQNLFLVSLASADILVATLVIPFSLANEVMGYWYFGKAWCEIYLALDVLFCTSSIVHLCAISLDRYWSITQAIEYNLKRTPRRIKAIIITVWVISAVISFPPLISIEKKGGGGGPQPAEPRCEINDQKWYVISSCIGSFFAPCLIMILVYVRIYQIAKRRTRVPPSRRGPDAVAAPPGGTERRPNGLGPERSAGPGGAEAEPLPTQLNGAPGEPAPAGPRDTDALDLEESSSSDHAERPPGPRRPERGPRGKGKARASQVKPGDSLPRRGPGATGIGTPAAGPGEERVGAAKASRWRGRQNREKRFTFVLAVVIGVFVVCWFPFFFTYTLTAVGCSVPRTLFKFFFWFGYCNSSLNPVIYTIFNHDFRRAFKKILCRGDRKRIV
T1 sequence (P18825 whole entry): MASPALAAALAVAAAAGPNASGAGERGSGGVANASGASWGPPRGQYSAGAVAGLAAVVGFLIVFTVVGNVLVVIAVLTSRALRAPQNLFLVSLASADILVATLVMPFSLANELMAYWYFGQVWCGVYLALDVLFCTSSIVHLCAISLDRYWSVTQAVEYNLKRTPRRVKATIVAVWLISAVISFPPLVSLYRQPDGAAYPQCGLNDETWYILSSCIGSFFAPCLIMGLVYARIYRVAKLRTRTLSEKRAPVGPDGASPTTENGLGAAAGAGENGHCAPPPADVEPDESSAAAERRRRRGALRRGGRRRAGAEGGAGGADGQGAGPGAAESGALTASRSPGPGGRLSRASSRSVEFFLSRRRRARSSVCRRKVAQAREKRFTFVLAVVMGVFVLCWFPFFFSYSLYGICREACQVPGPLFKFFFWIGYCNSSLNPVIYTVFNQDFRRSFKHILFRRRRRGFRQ
T1 sequence (P18089 whole entry): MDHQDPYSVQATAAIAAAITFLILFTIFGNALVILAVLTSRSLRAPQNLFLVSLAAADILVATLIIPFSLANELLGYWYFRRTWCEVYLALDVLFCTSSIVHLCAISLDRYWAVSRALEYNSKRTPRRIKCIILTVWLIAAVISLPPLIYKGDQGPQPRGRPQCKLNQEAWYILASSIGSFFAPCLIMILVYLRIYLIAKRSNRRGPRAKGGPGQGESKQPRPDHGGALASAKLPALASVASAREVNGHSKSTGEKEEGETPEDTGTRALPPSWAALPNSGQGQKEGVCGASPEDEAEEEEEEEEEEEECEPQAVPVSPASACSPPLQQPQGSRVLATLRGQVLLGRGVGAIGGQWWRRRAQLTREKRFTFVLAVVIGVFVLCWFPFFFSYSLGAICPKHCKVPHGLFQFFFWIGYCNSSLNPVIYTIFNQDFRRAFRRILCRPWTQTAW
The experiment can be described thus: Binding affinity towards cloned human Alpha-2 adrenergic receptor was determined. Format: protein assay.

Each structure is given as a SMILES string.

With `Cc1sc(C)c2c1CCCc1c[nH]nc1-2`, the inhibition constant Ki (usually a dissociation constant, usually derived from enzyme kinetics or from competition with a known ligand) was over 7.8 µM.
